# Assay results from patent US20180125073A1, “PESTICIDAL COMPOSITIONS AND RELATED METHODS” (priority 2015, published 2018).
# Tested on: green peach aphids (Myzus persicae)
# Assay: Pesticidal activity against green peach aphid on cabbage plants after soil treatment
# Type: in vivo
# Conditions: no surfactant added
# Protocol: Each tested compositions was prepared by mixing a predetermined amount of the CLOSER® SC insecticide (a sulfoxaflor concentrate having a sulfoxaflor concentration of 240 g/L) with a predetermined amount of the selected nonionic surfactant in an aqueous medium. Two nonionic surfactants were used in the study: alkyl polyglycoside AGNIQUE® PG 8107 surfactant from Cognis Corporation (C8-C10 alkyl polyglycoside with degree of polymer of 1.7), and PEG-3 tridecyl alcohol ether MAKON® TD3 surfactant from Stepan Company.
# For example, the “Sulfoxaflor at 100 ppm” composition contained about 0.043% weight of sulfoxaflor based on the total weight of the composition (i.e., 100 ppm of sulfoxaflor per one gram of final soil mixture). “Sulfoxaflor at 100 ppm+AGNIQUE®” composition contained about 0.043% weight of sulfoxaflor based on the total weight of the composition (i.e., 100 ppm of sulfoxaflor per one gram of final soil mixture), and about 0.225% weight of alkyl polyglycoside AGNIQUE® PG 8107 surfactant based on the total weight of the composition (i.e., 384 ppm per one gram of the final soil mixture; 1500 ppm per one gram of the total soil liquid).
# The imidacloprid pesticide PROVADO® 1.6 from Bayer CropScience LP (North Carolina, USA) was used as a standard commercial pesticidal composition for aphid control. The imidacloprid pesticide PROVADO® 1.6 was tested at three different loadings: 100 ppm, 25 ppm, and 6.25 ppm per gram of final soil mixture.
# In this EXAMPLE 7, water was tested as a control composition. Furthermore, an aqueous solution of alkyl polyglycoside AGNIQUE® PG 8107 surfactant and an aqueous solution of PEG-3 tridecyl alcohol ether MAKON® TD3 surfactant were tested. […]
# Each of the 1-ounce clear cups was filled with about 30 grams of the inoculated Midwest field soil having the components as shown in TABLE 7. […] The soil moisture of the Midwest field soil was about 15% as measured by Mettler LJ16 Moisture Analyzer (15 minutes and 100° C.). […]
smiles,measurement,setting,value
"C[C@@H](c1ccc(C(F)(F)F)nc1)[S@@](C)(=O)=NC#N (racemic) [Sulfoxaflor, [methyl(oxo) {1-[6-(trifluoromethyl)-3-pyridyl]ethyl}-λ^6-sulfanylidene]cyanamide]",number of live GPA aphids on cabbage plant,"DAT of 21 days, loading 6.25 ppm",about 38
same,number of live GPA aphids on cabbage plant,"DAT of 21 days, loading 100 ppm per gram of final soil mixture",no live GPA aphid
same,number of live GPA aphids on cabbage plant,"DAT of 28 days, sulfoxaflor 100 ppm",no live GPA aphid
